{"source": "BigSolDB 2.1"}
{"smiles": "CC(=O)c1c(C)c([N+](=O)[O-])c(C(C)(C)C)c([N+](=O)[O-])c1C", "values": [{"measurement": "solubility (mole fraction)", "setting": "in ethanol, 273.15 K", "value": 0.0016}, {"measurement": "solubility (mole fraction)", "setting": "in ethanol, 278.15 K", "value": 0.00198}, {"measurement": "solubility (mole fraction)", "setting": "in ethanol, 283.15 K", "value": 0.00241}, {"measurement": "solubility (mole fraction)", "setting": "in ethanol, 288.15 K", "value": 0.00295}, {"measurement": "solubility (mole fraction)", "setting": "in ethanol, 293.15 K", "value": 0.00354}, {"measurement": "solubility (mole fraction)", "setting": "in ethanol, 298.15 K", "value": 0.00426}, {"measurement": "solubility (mole fraction)", "setting": "in ethanol, 303.15 K", "value": 0.00512}, {"measurement": "solubility (mole fraction)", "setting": "in ethanol, 308.15 K", "value": 0.00619}, {"measurement": "solubility (mole fraction)", "setting": "in ethanol, 313.15 K", "value": 0.0074}, {"measurement": "solubility (mole fraction)", "setting": "in ethyl acetate, 273.15 K", "value": 0.055}, {"measurement": "solubility (mole fraction)", "setting": "in ethyl acetate, 278.15 K", "value": 0.0641}, {"measurement": "solubility (mole fraction)", "setting": "in ethyl acetate, 283.15 K", "value": 0.0742}, {"measurement": "solubility (mole fraction)", "setting": "in ethyl acetate, 288.15 K", "value": 0.0852}, {"measurement": "solubility (mole fraction)", "setting": "in ethyl acetate, 293.15 K", "value": 0.0954}, {"measurement": "solubility (mole fraction)", "setting": "in ethyl acetate, 298.15 K", "value": 0.111}, {"measurement": "solubility (mole fraction)", "setting": "in ethyl acetate, 303.15 K", "value": 0.122}, {"measurement": "solubility (mole fraction)", "setting": "in ethyl acetate, 308.15 K", "value": 0.139}, {"measurement": "solubility (mole fraction)", "setting": "in ethyl acetate, 313.15 K", "value": 0.156}, {"measurement": "solubility (mole fraction)", "setting": "in methanol, 273.15 K", "value": 0.00108}, {"measurement": "solubility (mole fraction)", "setting": "in methanol, 278.15 K", "value": 0.00128}, {"measurement": "solubility (mole fraction)", "setting": "in methanol, 283.15 K", "value": 0.00157}, {"measurement": "solubility (mole fraction)", "setting": "in methanol, 288.15 K", "value": 0.00187}, {"measurement": "solubility (mole fraction)", "setting": "in methanol, 293.15 K", "value": 0.00225}, {"measurement": "solubility (mole fraction)", "setting": "in methanol, 298.15 K", "value": 0.00272}, {"measurement": "solubility (mole fraction)", "setting": "in methanol, 303.15 K", "value": 0.00326}, {"measurement": "solubility (mole fraction)", "setting": "in methanol, 308.15 K", "value": 0.00387}, {"measurement": "solubility (mole fraction)", "setting": "in methanol, 313.15 K", "value": 0.00458}, {"measurement": "solubility (mole fraction)", "setting": "in n-butanol, 273.15 K", "value": 0.0022}, {"measurement": "solubility (mole fraction)", "setting": "in n-butanol, 278.15 K", "value": 0.00286}, {"measurement": "solubility (mole fraction)", "setting": "in n-butanol, 283.15 K", "value": 0.00368}, {"measurement": "solubility (mole fraction)", "setting": "in n-butanol, 288.15 K", "value": 0.00449}, {"measurement": "solubility (mole fraction)", "setting": "in n-butanol, 293.15 K", "value": 0.00533}, {"measurement": "solubility (mole fraction)", "setting": "in n-butanol, 298.15 K", "value": 0.00666}, {"measurement": "solubility (mole fraction)", "setting": "in n-butanol, 303.15 K", "value": 0.00812}, {"measurement": "solubility (mole fraction)", "setting": "in n-butanol, 308.15 K", "value": 0.00972}, {"measurement": "solubility (mole fraction)", "setting": "in n-butanol, 313.15 K", "value": 0.012}]}
